The results in this text go back to ChEMBL document CHEMBL1255351, “Biochemical characterization of metallo-beta-lactamase VIM-11 from a Pseudomonas aeruginosa clinical strain” (2008).

For experiment [1], the system named is Escherichia coli. In words: Antimicrobial activity Escherichia coli DH5alpha harboring bacteriophage T4 plasmid alpha omega by agar macrodilution method. It counts as functional.
Experiment [2] relates to Escherichia coli. Nature of the experiment: Antimicrobial activity Escherichia coli DH5alpha expressing metallo-beta-lactamase VIM-11 by agar macrodilution method. Format: functional.
Experiment [3] relates to Escherichia coli. Nature of the experiment: Antimicrobial activity Escherichia coli DH5alpha expressing beta lactamase VIM-2 by agar macrodilution method. It counts as functional.
In experiment [4] the test system is Pseudomonas aeruginosa. Nature of the experiment: Ratio of Kcat to Km for Pseudomonas aeruginosa COL-1 metallo-beta lactamase VIM-2 over Kcat to Km for Pseudomonas aeruginosa M5109 metallo-beta-lactamase VIM-11.
Experiment [5] has as its system Escherichia coli. Nature of the experiment: Activity at Escherichia coli DH5alpha metallo-beta-lactamase VIM-11 assessed as compound hydrolysis per mg of total periplasmic protein by spectrometry.
Experiment [6] concerns the target Metallo-beta-lactamase (Escherichia coli) (UniProt Q5U7L7). In words: Activity at Escherichia coli DH5alpha metallo-beta-lactamase VIM-2 assessed as compound hydrolysis per mg of total periplasmic protein by spectrometry.

≈ marks a conversion by molar mass, not a printed value.

Take `CO[C@@]1(NC(=O)Cc2cccs2)C(=O)N2C(C(=O)O)=C(COC(N)=O)CS[C@@H]21` [CEFOXITIN]: the MIC in experiment [1] stood at 4 µg/mL (≈ 9.36 µM); in experiment [2], 32 µg/mL (≈ 74.9 µM); in experiment [3], 64 µg/mL (≈ 150 µM). The kcat/Km ratio in experiment [4] worked out at 0.86.
For `CC1(C)S[C@@H]2[C@H](NC(=O)Cc3ccccc3)C(=O)N2[C@H]1C(=O)O` [PENICILLIN G], the MIC in experiment [2] and in experiment [3] was 128 µg/mL (≈ 383 µM) each time.
Regarding `C[C@@H](O)[C@H]1C(=O)N2C(C(=O)O)=C(SCCNC=N)C[C@H]12` [IMIPENEM ANHYDROUS], the MIC in experiment [2] stood at 0.5 µg/mL (≈ 1.67 µM); in experiment [3] it was 1 µg/mL (≈ 3.34 µM). In experiment [4], the kcat/Km ratio worked out at 0.67. Moreover, the Activity in experiment [5] stood at 1.3 µmol; in experiment [6], 27 µmol.
For `CO/N=C(\C(=O)N[C@@H]1C(=O)N2C(C(=O)O)=C(COC(N)=O)CS[C@H]12)c1ccco1` [CEFUROXIME], the MIC was 4 µg/mL (≈ 9.43 µM) in experiment [1], 64 µg/mL (≈ 151 µM) in experiment [2] and 128 µg/mL (≈ 302 µM) in experiment [3]. In addition, in experiment [4], the kcat/Km ratio was 0.89.
For the molecule `CO/N=C(\C(=O)N[C@@H]1C(=O)N2C(C(=O)[O-])=C(C[n+]3cccc4c3CCC4)CS[C@H]12)c1csc(N)n1` [CEFPIROME], the MIC in experiment [1] came out at 0.015 µg/mL (≈ 0.0291 µM); in experiment [2], 0.5 µg/mL (≈ 0.972 µM); in experiment [3], 0.25 µg/mL (≈ 0.486 µM). Moreover, in experiment [4], the kcat/Km ratio was determined as 2.
In the case of `O=C(Cc1cccs1)N[C@@H]1C(=O)N2C(C(=O)O)=C(/C=C/c3ccc([N+](=O)[O-])cc3[N+](=O)[O-])CS[C@H]12`, the kcat/Km ratio in experiment [4] worked out at 1.06.
Regarding `CO/N=C(\C(=O)N[C@@H]1C(=O)N2C(C(=O)[O-])=C(C[N+]3(C)CCCC3)CS[C@H]12)c1csc(N)n1`, the MIC in experiment [2] and in experiment [3] was 0.5 µg/mL (≈ 1.04 µM) in each case. Also, in experiment [4], the kcat/Km ratio came out at 2.9.
As to `C[C@@H](O)[C@H]1C(=O)N2C(C(=O)O)=C(S[C@@H]3CN[C@H](C(=O)N(C)C)C3)[C@H](C)[C@H]12` [MEROPENEM], the MIC in experiment [1] is 0.03 µg/mL (≈ 0.0782 µM); in experiment [2], 0.06 µg/mL (≈ 0.156 µM); in experiment [3], 0.125 µg/mL (≈ 0.326 µM). In addition, the kcat/Km ratio in experiment [4] worked out at 1.
